Paper PMC9304322, “Targeting retinoic acid receptor alpha-corepressor interaction activates chaperone-mediated autophagy and protects against retinal degeneration” (Nature Communications, 2022)
“And” between values parts separate entries of the source, which are not always exact repeats. Equal values may be shown once.

Key:
[1] = tested on: NIH3T3; test: Intracellular proteolysis of long half-life proteins; type: cell-based, mouse
Experimental: Confluent cells were labelled with [^3H]leucine (2μCi/ml) (NEN-PerkinElmer Life Sciences) for 48 h and then extensively washed and maintained in medium with an excess of unlabeled leucine. Proteolysis was calculated from aliquots of the medium taken at different times and precipitated in trichloroacetic acid, as the amount of acid-precipitable radioactivity transformed to acid-soluble radioactivity at each time. Where indicated cell were treated during the chase with […] leupeptin (Sigma, #108975) and […] NH4Cl (to determine lysosomal degradation) or with 100 μm MRT 68921 dihydrochloride (Tocris, #5780) (to determine macroautophagy degradation).

[2] = tested on: neuroblastoma cell line N2a expressing the KFERQ-PS-Dendra reporter; test: CMA activity, KFERQ-PS-Dendra reporter in N2a cells; type: cell-based, mouse; design: CMA activity, mean (Fig. S2a): unit not given here
Experimental: (§1) Cells were transduced with lentivirus carrying the KFERQ-PS-Dendra reporter as before. Cells were photoactivated by exposure to a 3.5 mA (current constant) light emitting diode (LED: Norlux, 405 nm) for 3 min and then plated in glass-bottom 96 well plates. At the desired times, cells were fixed with 4% PFA and imaged using high-content microscopy (Operetta system, Perkin Elmer). Images were quantified using the manufacturer’s software in a minimum of 1,200 cells in 9 independent fields per well. […] This was particularly important in the case of primary human cells where the efficiency of transduction was ~65%. To avoid confounding effects for drug-induced changes in cell volume or adherence to the plate that could bring a fraction of the cells per field outside of focus, we set a threshold to count only […] that have at least 1/10 of the average number of […] detected in the untreated wells for each cell type (3–4 puncta/cell in the case of NIH3T3 and N2a cells and 5 puncta/cell in primary human fibroblasts).

[3] = tested on: primary human fibroblast expressing the KFERQ-PS-Dendra reporter; test: CMA activity, KFERQ-PS-Dendra reporter in primary human fibroblasts; type: cell-based; design: key to CMA activity, mean (Fig. S2c): puncta per cell
Experimental: as §1

[4] = tested on: NIH3T3 stably expressing the KFERQ-PS-Dendra; test: CMA activity, KFERQ-PS-Dendra fluorescent reporter in NIH3T3 mouse fibroblasts; type: cell-based; design: CMA activity (Fig. 1d), MEAN / CMA activity (Fig. 1e-g), mean / CMA activity (Fig. 1d), individual experiments / CMA activity, mean (Fig. S2c, second panel) / CMA activity, mean (Fig. S2c, first panel) / CMA activity, mean (Fig. S2c, third panel): unit not given here; conditions: for CMA activity (Fig. 1e-g), mean: 12h, n = 4
Experimental: as §1

Clc1ccc2c(c1)OCC(c1ccc(-c3ccccc3)cc1)=N2 [CA39]
duration of the increase in degradation of long-lived proteins ([1]; NIH3T3, 10 μM): remained upregulated 24 h | Lysosomal proteolysis, Mean (Fig. S3c) ([1]; Time 6): 2.60 | Lysosomal proteolysis, Mean (Fig. S3c) ([1]; Time 12): 7.36 | CMA activity, mean relative to concentration 0 = 1 (Fig. S2b) ([2]; 12+12w, concentration 0.2): 0.9934 | CMA activity, mean relative to concentration 0 = 1 (Fig. S2b) ([2]; 12+12w, concentration 2): 0.9832 | CMA activity, mean relative to concentration 0 = 1 (Fig. S2b) ([2]; 12+12w, concentration 5): 3.155 | CMA activity, mean relative to concentration 0 = 1 (Fig. S2b) ([2]; 12+12w, concentration 10): 2.605 | CMA activity, mean relative to concentration 0 = 1 (Fig. S2b) ([2]; 12+12w, concentration 20): 4.196 | CMA activity, mean relative to concentration 0 = 1 (Fig. S2b) ([2]; 12+12w, concentration 30): 3.752 | CMA activity, mean (Fig. S2a) ([2]; 12h, concentration 0.02): 3.028 | CMA activity, mean (Fig. S2a) ([2]; 12h, concentration 0.2): 4.51 | CMA activity, mean relative to concentration 0 = 1 (Fig. S2b) ([2]; 12h, concentration 0.2): 1.03 | CMA activity, mean (Fig. S2a) ([2]; 12h, concentration 2): 4.84 | CMA activity, mean relative to concentration 0 = 1 (Fig. S2b) ([2]; 12h, concentration 2): 1.106 | CMA activity, mean (Fig. S2a) ([2]; 12h, concentration 5): 10.9424 | CMA activity, mean relative to concentration 0 = 1 (Fig. S2b) ([2]; 12h, concentration 5): 2.5 | CMA activity, mean (Fig. S2a) ([2]; 12h, concentration 10): 9.785 | CMA activity, mean relative to concentration 0 = 1 (Fig. S2b) ([2]; 12h, concentration 10): 2.2356 | CMA activity, mean (Fig. S2a) ([2]; 12h, concentration 20): 12.4415 | CMA activity, mean relative to concentration 0 = 1 (Fig. S2b) ([2]; 12h, concentration 20): 2.842 | CMA activity, mean (Fig. S2a) ([2]; 12h, concentration 30): 12.3771 | CMA activity, mean relative to concentration 0 = 1 (Fig. S2b) ([2]; 12h, concentration 30): 2.828 | CMA activity, mean (Fig. S2a) ([2]; 12h, concentration 40): 18.3499 | CMA activity, mean (Fig. S2a) ([2]; 12h, concentration 50): 17.0288 | CMA activity, mean (Fig. S2a) ([2]; 12h, concentration 60): 19.2922 | CMA activity, mean (Fig. S2a) ([2]; 24h, concentration 0.02): 3.481 | CMA activity, mean (Fig. S2a) ([2]; 24h, concentration 0.2): 5.502 | CMA activity, mean relative to concentration 0 = 1 (Fig. S2b) ([2]; 24h, concentration 0.2): 1.258 | CMA activity, mean (Fig. S2a) ([2]; 24h, concentration 2): 4.784 | CMA activity, mean relative to concentration 0 = 1 (Fig. S2b) ([2]; 24h, concentration 2): 1.094 | CMA activity, mean (Fig. S2a) ([2]; 24h, concentration 5): 12.5789 | CMA activity, mean relative to concentration 0 = 1 (Fig. S2b) ([2]; 24h, concentration 5): 2.876 | CMA activity, mean (Fig. S2a) ([2]; 24h, concentration 10): 14.7898 | CMA activity, mean relative to concentration 0 = 1 (Fig. S2b) ([2]; 24h, concentration 10): 3.382 | CMA activity, mean (Fig. S2a) ([2]; 24h, concentration 20): 22.8096 | CMA activity, mean relative to concentration 0 = 1 (Fig. S2b) ([2]; 24h, concentration 20): 5.216 | CMA activity, mean (Fig. S2a) ([2]; 24h, concentration 30): 25.6157 | CMA activity, mean relative to concentration 0 = 1 (Fig. S2b) ([2]; 24h, concentration 30): 5.858 | CMA activity, mean (Fig. S2a) ([2]; 24h, concentration 40): 31.0418 | CMA activity, mean (Fig. S2a) ([2]; 24h, concentration 50): 34.0174 | CMA activity, mean (Fig. S2a) ([2]; 24h, concentration 60): 32.9288 | CMA activation in neuron-related mouse cells ([2]; in words): efficiently activated CMA | CMA activity, mean (Fig. S2c) ([3]; concentration 0.02): 24.0456 | CMA activity, mean (Fig. S2c) ([3]; concentration 0.2): 28.2677 | CMA activity, mean (Fig. S2c) ([3]; concentration 2): 18.5469 | CMA activation in human cells ([3]; in words): efficiently activated CMA | CMA activity (Fig. 1d), MEAN ([4]; 20 μM of each compound, n = 3 independent experiments): 4.580 | CMA activity (Fig. 1d), individual experiments ([4]; 20 μM of each compound, single experiments): 5.482 and 4.270 and 3.988 | CMA activity (Fig. 1e-g), mean ([4]; concentration 0.02 (unit not given)): 3.045 | CMA activity (Fig. 1e-g), mean ([4]; concentration 0.2): 3.489 | CMA activity (Fig. 1e-g), mean ([4]; concentration 2): 3.493 | CMA activity (Fig. 1e-g), mean ([4]; concentration 5): 8.168 | CMA activity (Fig. 1e-g), mean ([4]; concentration 10): 10.4134
